Measured values taken from patent US9783586B2, “Inhibitors of the linear ubiquitin chain assembly complex (LUBAC) and related methods” (The United States of America, as represented by the …, priority 2013, dated 2017).
“Also recorded” adds a separate entry of the source. Positions of bridges follow the written chain, without caps; N, C: chain ends. Non-standard residues stand in square brackets, D forms with d. Residues, ends and D or L forms follow the SMILES beside them. No end group written: not given here. S5 = C=CCCC[C@](C)(N)C(=O)O; βAla = NCCC(=O)O

Tests used:
Type in all cases: cell-based
NF-κB = NF-κB luciferase reporter assay; settings: for NF-κB activity: ABC DLBCL cells, Example 10 (FIG. 8A)
Procedure: A third experiment was done using a different reporter system for NF-κB activity. HBL1 and TMD8 ABC DLBCL lines cell lines were created with an NF-κB transcriptional reporter by transduction with lentiviral particles containing an inducible NF-κB-responsive luciferase reporter construct (SA Biosciences, Valencia, Calif.) and selected with puromycin. Luciferase activity was measured using the DUAL-LUCIFERASE™ Reporter Assay System (Promega) on a Microtiter Plate Luminometer (Dyn-Ex Technologies, Chantilly, Va.). The transduced HBL and TMD8 cell lines were then transfected with constructs that inducibly express control (SC4) or RNF31 shRNAs described above. Expression of shRNAs was induced using doxycyline, and the luciferase reporter activity in shRNF31 expression cells was measured and normalized relative to control (SC4). Cells were also treated with the specific IKKβ inhibitor (MLN120B) as a positive control. Experiments were done in triplicate, and results are shown in FIG. 2C (error bars indicate SEM).
The ability of these peptides to inhibit NF-κB activity in ABC DLBCL was determined using the NF-κB luciferase reporter assay described above. Negative control cells were treated with dimethyl sulfoxide (DMSO), and positive control cells were treated with Bruton's tyrosine kinase (Btk) inhibitor ibrutinib. […] Cells were treated with peptides at concentrations of 5 μM or 20 μM for 2 days. Relative NF-κB-luciferase reporter activity was normalized and measured relative to control (DMSO-treated) cells. The results of triplicate experiments are shown in FIG. 4 (error bars indicate the SEM).

IκBα = assay: IκBα-luciferase reporter assay; settings: ABC DLBCL cells, Example 10 (FIG. 8B)
Source text: In a second experiment, HBL1 and TMD8 ABC DLBCL lines were engineered to contain an NF-κB-driven luciferase reporter. Vectors expressing an IκBα-luciferase fusion protein were constructed using Photinus luciferase from pGL3 vector (Promega, Madison, Wis.) as the reporter and Renilla luciferase construct from phRL-TK (Promega) was used for normalization. Stable clones were identified that were responsive to […] (see Lam et al, Clin Cancer Res, 11: 28-40 (2005)). After development with the DUAL-GLO luciferase assay system (Promega), the ratio of IκBα-Photinus to Renilla luminescence was normalized to that in untreated or uninduced cultures. The IκBα assay, which relies on the correlation between NF-κB activity and IKKβ kinase activity, was previously described in Lenz et al, Science, 319: 1676-1679 (2008). In brief, IKKβ kinase phosphorylates IκBα, which leads to degradation of IκBα (an inhibitor of NF-κB) and thereby activates NF-κB.
The engineered cells were transfected with control (SC4) or RNF31 shRNAs under the control of a doxycyline promoter as described in Example 2. Expression of shRNA was induced with doxycyline, and relative amounts of NF-κB Luciferase reporter activity was measured and normalized relative to control (SC4) shRNA. As additional controls, the expression of NF-κB Luciferase reporter activity was measured in cells that were not expressing shRNAs and which were either treated with the specific IKKβ inhibitor (“MLM-120B”) or untreated (“No Rx”). Experiments were done in triplicate and the results are shown in FIG. 2B (error bars indicate standard error of the mean (SEM)).

ABC DLBCL cell lines = assay: MTS cell viability assay, ABC DLBCL; settings: ABC DLBCL cells, Example 10 (FIG. 8C)
Procedure: ABC and GCB DLBCL cell lines were treated with RNF31 stapled peptides of Table 2 at concentrations of 5 μM or 20 μM for four days. Cell viability was determined using the following MTS assay. Cells were plated in triplicate at a density of 15,000 cells per well in 96-well plates. Cell viability after indicated treatments was assayed by adding 3-(4,5-dimethylthiazol-2-yl)-5-(3-carboxymethoxyphenyl)-2-(4-sulphophenyl)-2H tetrazolium and an electron coupling reagent (phenazine methosulphate from Promega, Madison, Wis.), incubated for 3 hours and measured by the amount of 490 nm absorbance using a 96-well plate reader. The background was subtracted using a media only control. The results of these MTS assays done in triplicate are shown in FIGS. 7A-7D (error bars indicate the SEM), and cell viability is expressed as the fraction of cells remaining after four days treatment, relative to the initial number of cells at the start of treatment (time 0). The results of MTS cell viability assay indicate that amino-terminal cross-linked peptides RNF31-N (SEQ ID NO: 11) and RNF31-NC (SEQ ID NO: 12) were toxic to ABC DLBCL cell lines but had little effect on GCB DLBCL cell lines tested.

RBCK1/RNF31 interaction = biological target: T1, RBCK1/RNF31 interaction (Homo sapiens, UniProt Q9BYM8); assay: RBCK1/RNF31 co-immunoprecipitation (LUBAC complex formation) in co-transfected HEK-293 cells; settings: for Interference with LUBAC function: Example 9, tested as described in Example 7 (present tense)
T1 construct: expressed in transfected cells; host or cells: HEK-293
T1 sequence (Q9BYM8 1-510): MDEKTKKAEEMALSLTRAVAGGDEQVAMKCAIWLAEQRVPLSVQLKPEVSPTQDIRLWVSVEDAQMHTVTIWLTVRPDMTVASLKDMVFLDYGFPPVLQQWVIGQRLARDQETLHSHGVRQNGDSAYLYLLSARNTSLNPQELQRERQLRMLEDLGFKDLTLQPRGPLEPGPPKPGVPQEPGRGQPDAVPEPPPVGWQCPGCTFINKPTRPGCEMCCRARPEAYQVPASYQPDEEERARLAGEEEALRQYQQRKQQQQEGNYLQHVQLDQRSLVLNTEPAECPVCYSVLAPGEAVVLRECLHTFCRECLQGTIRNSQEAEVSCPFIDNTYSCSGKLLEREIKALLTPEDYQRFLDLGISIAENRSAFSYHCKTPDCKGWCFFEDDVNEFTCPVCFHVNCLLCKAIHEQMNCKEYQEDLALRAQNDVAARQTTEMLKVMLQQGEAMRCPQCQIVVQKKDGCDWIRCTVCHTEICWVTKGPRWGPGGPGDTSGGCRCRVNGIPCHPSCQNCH

| Molecule | NF-κB activity (NF-κB) | IκBα activity (IκBα-reporter) (IκBα) | Cell viability (MTS) (ABC DLBCL cell lines) | Interference with LUBAC function (RBCK1/RNF31 interaction) | other results |
| --- | --- | --- | --- | --- | --- |
| SRALTELQRQRLEPFRQRLWDSG [SEQ ID NO:1] | little or no effect | little or no effect | little or no effect |  |  |
| CC(=O)NCCC(=O)N[C@@H](CO)C(=O)N[C@@H](CCCNC(=N)N)C(=O)N[C@@]1(C)CCCC=CCCC[C@@](C)(C(=O)N[C@@H](CCC(N)=O)C(=O)N[C@@H](CCCNC(=N)N)C(=O)N[C@@H](CCC(N)=O)C(=O)N[C@@H](CCCNC(=N)N)C(=O)N[C@@H](CC(C)C)C(=O)N[C@@H](CCC(=O)O)C(=O)N2CCC[C@H]2C(=O)N[C@@H](Cc2ccccc2)C(=O)N[C@@H](CCCNC(=N)N)C(=O)N[C@@H](CC(C)C)C(=O)N[C@@H](CCCNC(=N)N)C(=O)N[C@@]2(C)CCCC=CCCC[C@@](C)(C(N)=O)NC(=O)[C@H](CO)NC(=O)[C@H](CC(=O)O)NC(=O)[C@H](Cc3c[nH]c4ccccc34)NC2=O)NC(=O)[C@H](CCC(=O)O)NC(=O)[C@H]([C@@H](C)O)NC(=O)[C@H](CC(C)C)NC1=O [RNF31-NC Q2L, Ac-βAla Ser Arg Xaa Leu Thr Glu Xaa Gln Arg Gln Arg Leu Glu Pro Phe Arg Leu Arg Xaa Trp Asp Ser Xaa-NH2] (Ac-[βAla]SR[S5]LTE[S5]QRQRLEPFRLR[S5]WDS[S5]-NH2; staple 4-8, 20-24) | inhibited NF-κB activity; also recorded: greatest activity | decreased IκBα activity; also recorded: greatest activity | decreased cell viability; also recorded: greatest activity | interfere with LUBAC function |  |
| Ac-βAla Ser Arg Ala Leu Thr Glu Leu Gln Arg Gln Arg Leu Glu Pro Phe Arg Gln Arg Xaa Trp Asp Ser Xaa-NH2 (Ac-[βAla]SRALTELQRQRLEPFRQR[S5]WDS[S5]-NH2; staple 20-24; SMILES CC(=O)NCCC(=O)N[C@@H](CO)C(=O)N[C@@H](CCCNC(=N)N)C(=O)N[C@@H](C)C(=O)N[C@@H](CC(C)C)C(=O)N[C@H](C(=O)N[C@@H](CCC(=O)O)C(=O)N[C@@H](CC(C)C)C(=O)N[C@@H](CCC(N)=O)C(=O)N[C@@H](CCCNC(=N)N)C(=O)N[C@@H](CCC(N)=O)C(=O)N[C@@H](CCCNC(=N)N)C(=O)N[C@@H](CC(C)C)C(=O)N[C@@H](CCC(=O)O)C(=O)N1CCC[C@H]1C(=O)N[C@@H](Cc1ccccc1)C(=O)N[C@@H](CCCNC(=N)N)C(=O)N[C@@H](CCC(N)=O)C(=O)N[C@@H](CCCNC(=N)N)C(=O)N[C@@]1(C)CCCC=CCCC[C@@](C)(C(N)=O)NC(=O)[C@H](CO)NC(=O)[C@H](CC(=O)O)NC(=O)[C@H](Cc2c[nH]c3ccccc23)NC1=O)[C@@H](C)O) [RNF31-C] |  |  |  |  | Relative NF-κB-luciferase reporter activity (NF-κB; HBL1 ABC DLBCL cells, 5 μM or 20 μM, 2 days, relative to DMSO (FIG. 4)): less of an effect; RBCK1/RNF31 interaction (anti-HA immunoprecipitation, densitometry) (RBCK1/RNF31 interaction; HEK-293 cells, 5 μM or 20 μM, 24 hours, relative to DMSO (FIGS. 5, 6)): little if any effect |
| CC(=O)NCCC(=O)N[C@@H](CO)C(=O)N[C@@H](CCCNC(=N)N)C(=O)N[C@@]1(C)CCCC=CCCC[C@@](C)(C(=O)N[C@@H](CCC(N)=O)C(=O)N[C@@H](CCCNC(=N)N)C(=O)N[C@@H](CCC(N)=O)C(=O)N[C@@H](CCCNC(=N)N)C(=O)N[C@@H](CC(C)C)C(=O)N[C@@H](CCC(=O)O)C(=O)N2CCC[C@H]2C(=O)N[C@@H](Cc2ccccc2)C(=O)N[C@@H](CS)C(=O)N[C@@H](CC(C)C)C(=O)N[C@@H](CCCNC(=N)N)C(=O)N[C@@]2(C)CCCC=CCCC[C@@](C)(C(N)=O)NC(=O)[C@H](CO)NC(=O)[C@H](CC(=O)O)NC(=O)[C@H](Cc3c[nH]c4ccccc34)NC2=O)NC(=O)[C@H](CCC(=O)O)NC(=O)[C@H]([C@@H](C)O)NC(=O)[C@H](CC(C)C)NC1=O [RNF31-NC R2CL, Ac-βAla Ser Arg Xaa Leu Thr Glu Xaa Gln Arg Gln Arg Leu Glu Pro Phe Cys Leu Arg Xaa Trp Asp Ser Xaa-NH2] (Ac-[βAla]SR[S5]LTE[S5]QRQRLEPFCLR[S5]WDS[S5]-NH2; staple 4-8, 20-24) |  |  |  | interfere with LUBAC function |  |
| CC(=O)NCCC(=O)N[C@@H](CO)C(=O)N[C@@H](CCCNC(=N)N)C(=O)N[C@@]1(C)CCCC=CCCC[C@@](C)(C(=O)N[C@@H](CCC(N)=O)C(=O)N[C@@H](CCCNC(=N)N)C(=O)N[C@@H](CCC(N)=O)C(=O)N[C@@H](CCCNC(=N)N)C(=O)N[C@@H](CC(C)C)C(=O)N[C@@H](CCC(=O)O)C(=O)NCC(=O)N[C@@H](Cc2ccccc2)C(=O)N[C@@H](CCCNC(=N)N)C(=O)N[C@@H](CCC(N)=O)C(=O)N[C@@H](CCCNC(=N)N)C(=O)N[C@@]2(C)CCCC=CCCC[C@@](C)(C(N)=O)NC(=O)[C@H](CO)NC(=O)[C@H](CC(=O)O)NC(=O)[C@H](Cc3c[nH]c4ccccc34)NC2=O)NC(=O)[C@H](CCC(=O)O)NC(=O)[C@H]([C@@H](C)O)NC(=O)[C@H](CC(C)C)NC1=O [RNF31-NC P2G, Ac-βAla Ser Arg Xaa Leu Thr Glu Xaa Gln Arg Gln Arg Leu Glu Gly Phe Arg Gln Arg Xaa Trp Asp Ser Xaa-NH2] (Ac-[βAla]SR[S5]LTE[S5]QRQRLEGFRQR[S5]WDS[S5]-NH2; staple 4-8, 20-24) |  |  |  | interfere with LUBAC function |  |
| CC(=O)NCCC(=O)N[C@@H](CO)C(=O)N[C@@H](CCCNC(=N)N)C(=O)N[C@@]1(C)CCCC=CCCC[C@@](C)(C(=O)N[C@@H](CCC(N)=O)C(=O)N[C@@H](CCCNC(=N)N)C(=O)N[C@@H](CCC(N)=O)C(=O)N[C@@H](CCCNC(=N)N)C(=O)N[C@@H](CC(C)C)C(=O)N[C@@H](CCC(=O)O)C(=O)N2CCC[C@H]2C(=O)N[C@@H](Cc2ccccc2)C(=O)N[C@@H](CS)C(=O)N[C@@H](CCC(N)=O)C(=O)N[C@@H](CCCNC(=N)N)C(=O)N[C@@]2(C)CCCC=CCCC[C@@](C)(C(N)=O)NC(=O)[C@H](CO)NC(=O)[C@H](CC(=O)O)NC(=O)[C@H](Cc3c[nH]c4ccccc34)NC2=O)NC(=O)[C@H](CCC(=O)O)NC(=O)[C@H]([C@@H](C)O)NC(=O)[C@H](CC(C)C)NC1=O [RNF31-NC R2C, Ac-βAla Ser Arg Xaa Leu Thr Glu Xaa Gln Arg Gln Arg Leu Glu Pro Phe Cys Gln Arg Xaa Trp Asp Ser Xaa-NH2] (Ac-[βAla]SR[S5]LTE[S5]QRQRLEPFCQR[S5]WDS[S5]-NH2; staple 4-8, 20-24) |  |  |  | interfere with LUBAC function |  |
